# Test results taken from patent publication US20250051338A1, “TYK2 DEGRADERS AND USES THEREOF” (Kymera Therapeutics, Inc., priority 2021, published 2025).
# Target: T1, TYK2 (Homo sapiens, UniProt P29597)
# Experiment: TYK2 degradation MSD assay in OCI-LY10 cells
# Format: cell-based
# Parameters: endogenous in cells; host or cells: EBV-B cells
# Conditions: 4 to 24 hours incubation, read-out: TYK2 MSD DC50 rating in OCI-LY10
# Method in brief: (§1)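 MSD electrochemiluminescence readout of residual TYK2 in RIPA lysates after 4–24 h compound exposure at 37° C. Dosing: 9 concentrations, 1:3 steps, top 1 to 10 μM. DC50 fitted by four-parameter inhibitor vs. response regression.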
# T1 sequence (P29597 whole entry): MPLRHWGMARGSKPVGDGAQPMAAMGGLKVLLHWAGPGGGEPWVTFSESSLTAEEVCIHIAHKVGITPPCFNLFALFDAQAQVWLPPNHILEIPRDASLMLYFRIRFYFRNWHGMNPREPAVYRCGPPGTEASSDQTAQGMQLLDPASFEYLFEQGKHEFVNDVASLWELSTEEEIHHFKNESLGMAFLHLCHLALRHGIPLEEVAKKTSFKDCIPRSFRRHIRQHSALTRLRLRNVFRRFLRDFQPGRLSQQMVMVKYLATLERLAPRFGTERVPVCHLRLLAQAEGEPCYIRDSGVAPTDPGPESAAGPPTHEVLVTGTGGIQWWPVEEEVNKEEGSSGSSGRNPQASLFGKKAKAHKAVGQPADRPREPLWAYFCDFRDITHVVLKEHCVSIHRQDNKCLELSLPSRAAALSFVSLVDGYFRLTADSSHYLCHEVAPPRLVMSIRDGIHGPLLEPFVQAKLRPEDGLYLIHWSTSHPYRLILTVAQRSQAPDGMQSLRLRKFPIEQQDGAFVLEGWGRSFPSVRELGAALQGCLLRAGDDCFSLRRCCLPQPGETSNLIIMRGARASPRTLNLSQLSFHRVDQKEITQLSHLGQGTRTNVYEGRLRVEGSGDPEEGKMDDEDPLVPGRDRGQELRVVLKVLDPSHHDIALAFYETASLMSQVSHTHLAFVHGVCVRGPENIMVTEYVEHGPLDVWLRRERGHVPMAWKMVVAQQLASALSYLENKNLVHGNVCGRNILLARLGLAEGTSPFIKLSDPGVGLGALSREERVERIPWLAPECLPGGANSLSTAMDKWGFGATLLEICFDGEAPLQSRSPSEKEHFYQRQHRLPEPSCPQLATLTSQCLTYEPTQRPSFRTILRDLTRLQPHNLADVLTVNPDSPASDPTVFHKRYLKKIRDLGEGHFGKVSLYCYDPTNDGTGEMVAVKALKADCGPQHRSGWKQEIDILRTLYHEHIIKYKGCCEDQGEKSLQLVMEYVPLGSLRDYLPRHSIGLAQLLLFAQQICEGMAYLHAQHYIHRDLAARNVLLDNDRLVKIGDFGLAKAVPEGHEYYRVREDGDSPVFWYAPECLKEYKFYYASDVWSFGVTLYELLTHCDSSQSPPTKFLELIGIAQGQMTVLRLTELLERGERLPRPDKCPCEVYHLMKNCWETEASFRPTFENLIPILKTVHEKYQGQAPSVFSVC
row,DC50 [nM],Structure (SMILES)
1,1 to 10,Cn1c(=O)n(C2CCC(=O)NC2=O)c2ccc(-c3ccc(N4CC5(CN(Cc6ccc(-c7cccc(Nc8ccc9ncc(C(=O)NC%10CC%10)n9n8)c7)nc6)C5)C4)cc3)cc21 (stereo not drawn) [Example K515]
2,> 100,CNC1=CC(Nc2cccc(-c3ccc(CN4CCN(c5ccc(-c6cccc7c(N8CCC(=O)NC8=O)cncc67)cc5)CC4)cn3)c2)=NN2C1=NCC2C(=O)N[C@@H]1C[C@@H]1F (stereo partly drawn) [Example K516]
3,< 1,CNc1cc(Nc2cccc(-c3ccc(CN4CCC(N5CC(N6CCN(c7cccc8c7n(C)c(=O)n8C7CCC(=O)NC7=O)CC6)C5)CC4)cn3)c2)nn2c(C(=O)N[C@@H]3C[C@@H]3F)cnc12 (stereo partly drawn) [Example K517]
4,< 1,CNc1cc(Nc2cccc(N3CCC(CN4CCN(c5ccc(-c6ccc7c(c6)n(C)c(=O)n7C6CCC(=O)NC6=O)cc5)CC4)CC3)c2)nn2c(C(=O)N[C@@H]3C[C@@H]3F)cnc12 (stereo partly drawn) [Example K518]
5,< 1,CNc1cc(Nc2cccn(-c3ccc(CN4CC5(C4)CN(c4ccc(-c6ccc7c(c6)n(C)c(=O)n7C6CCC(=O)NC6=O)cc4)C5)cn3)c2=O)nn2c(C(=O)N[C@@H]3C[C@@H]3F)cnc12 (stereo partly drawn) [Example K519]

# The next lines start with the compound.
row,Structure (SMILES),DC50 [nM]
1,CNc1cc(Nc2cccc(-c3ccc(CN4CCN(CCCOc5ccc(C6CCC(=O)NC6=O)cc5)CC4)cn3)c2)nn2c(C(=O)N[C@@H]3C[C@@H]3F)cnc12 (stereo partly drawn) [Example K504],> 100
2,CNc1cc(N2CCc3c(-c4ccc(CN5CCN(c6ccc(-c7ccc8c(c7)n(C)c(=O)n8C7CCC(=O)NC7=O)cc6)CC5)cn4)cccc32)nn2c(C(=O)N[C@@H]3C[C@@H]3F)cnc12 (stereo partly drawn) [Example K505],1 to 10
3,CNc1cc(Nc2cccc(-c3ccc(CN4CC5(CCN(C(=O)c6ccc(Cl)c(N7CCC(=O)NC7=O)c6)CC5)C4)cn3)c2)nn2c(C(=O)N[C@@H]3C[C@@H]3F)cnc12 [Example K506],1 to 10
4,CNc1cc(Nc2cccc(-c3ccc(CN4CCC(CCc5cccc6c5n(C)c(=O)n6C5CCC(=O)NC5=O)CC4)cn3)c2)nn2c(C(=O)N[C@@H]3C[C@@H]3F)cnc12 (stereo partly drawn) [Example K507],< 1
5,CNc1cc(Nc2cccc(-c3ccc(CN4CCN(c5ccc(-c6ccc7c(c6)n(C)c(=O)n7C6CCC(=O)NC6=O)cc5)CC4)cn3)c2)nc2c(C(=O)N[C@@H]3C[C@@H]3F)cnn12 (stereo partly drawn) [Example K508],< 1
6,Cn1c(=O)n(C2CCC(=O)NC2=O)c2ccc(-c3ccc(N4CCN(Cc5ccc(-c6cccc(Nc7cc(NC8CC8)n8ncc(C(=O)N[C@@H]9C[C@@H]9F)c8n7)c6)nc5)CC4)cc3)cc21 (stereo partly drawn) [Example K509],1 to 10
7,CNc1cc(Nc2cccc(-c3ccc(CN4CC5(CCN(c6cccc7c6n(C)c(=O)n7C6CCC(=O)NC6=O)CC5)C4)cn3)c2)nn2c(C(=O)N[C@@H]3C[C@@H]3F)cnc12 (stereo partly drawn) [Example K510],< 1
8,CNC1=CC(Nc2cccc(-c3ccc(CN4CC5(CCN(c6cccc7c(C8CCC(=O)NC8=O)cccc67)CC5)C4)cn3)c2)=NC2C(C(=O)N[C@@H]3C[C@@H]3F)=CN=C12 (stereo partly drawn) [Example K512],1 to 10
9,CNc1cc(Nc2cccc(-c3ccc(CN4CCN(c5ccc(-c6cccc7c6n(C)c(=O)n7C6CCC(=O)NC6=O)cc5)CC4)cn3)c2)nn2c(C(=O)N[C@@H]3C[C@@H]3F)cnc12 (stereo partly drawn) [Example K513],1 to 10
10,CNc1cc(Nc2cccn(-c3ccc(CN4CCN(CC5CCN(c6ccc(-c7ccc8c(c7)n(C)c(=O)n8C7CCC(=O)NC7=O)cc6)CC5)CC4)cn3)c2=O)nn2c(C(=O)N[C@@H]3C[C@@H]3F)cnc12 (stereo partly drawn) [Example K514],< 1

# Target: T1, TYK2
# Experiment: TYK2 degradation MSD assay in human PBMC cells
# Format: cell-based
# Parameters: endogenous in cells; host or cells: human PBMC
# Conditions: 4 to 24 hours incubation, read-out: TYK2 MSD DC50 rating in human PBMC
# Method in brief: as §1
row,DC50 [nM],Structure (SMILES)
1,> 100,Cn1c(=O)n(C2CCC(=O)NC2=O)c2ccc(-c3ccc(N4CC5(CN(Cc6ccc(-c7cccc(Nc8ccc9ncc(C(=O)NC%10CC%10)n9n8)c7)nc6)C5)C4)cc3)cc21 (stereo not drawn) [Example K515]
2,> 100,CNC1=CC(Nc2cccc(-c3ccc(CN4CCN(c5ccc(-c6cccc7c(N8CCC(=O)NC8=O)cncc67)cc5)CC4)cn3)c2)=NN2C1=NCC2C(=O)N[C@@H]1C[C@@H]1F (stereo partly drawn) [Example K516]
3,> 100,CNc1cc(Nc2cccc(-c3ccc(CN4CCC(N5CC(N6CCN(c7cccc8c7n(C)c(=O)n8C7CCC(=O)NC7=O)CC6)C5)CC4)cn3)c2)nn2c(C(=O)N[C@@H]3C[C@@H]3F)cnc12 (stereo partly drawn) [Example K517]
4,> 100,CNc1cc(Nc2cccc(N3CCC(CN4CCN(c5ccc(-c6ccc7c(c6)n(C)c(=O)n7C6CCC(=O)NC6=O)cc5)CC4)CC3)c2)nn2c(C(=O)N[C@@H]3C[C@@H]3F)cnc12 (stereo partly drawn) [Example K518]
5,> 100,CNc1cc(Nc2cccn(-c3ccc(CN4CC5(C4)CN(c4ccc(-c6ccc7c(c6)n(C)c(=O)n7C6CCC(=O)NC6=O)cc4)C5)cn3)c2=O)nn2c(C(=O)N[C@@H]3C[C@@H]3F)cnc12 (stereo partly drawn) [Example K519]

# The next lines start with the compound.
row,Structure (SMILES),DC50 [nM]
1,CNc1cc(Nc2cccc(-c3ccc(CN4CCN(CCCOc5ccc(C6CCC(=O)NC6=O)cc5)CC4)cn3)c2)nn2c(C(=O)N[C@@H]3C[C@@H]3F)cnc12 (stereo partly drawn) [Example K504],> 100
2,CNc1cc(N2CCc3c(-c4ccc(CN5CCN(c6ccc(-c7ccc8c(c7)n(C)c(=O)n8C7CCC(=O)NC7=O)cc6)CC5)cn4)cccc32)nn2c(C(=O)N[C@@H]3C[C@@H]3F)cnc12 (stereo partly drawn) [Example K505],> 100
3,CNc1cc(Nc2cccc(-c3ccc(CN4CC5(CCN(C(=O)c6ccc(Cl)c(N7CCC(=O)NC7=O)c6)CC5)C4)cn3)c2)nn2c(C(=O)N[C@@H]3C[C@@H]3F)cnc12 [Example K506],> 100
4,CNc1cc(Nc2cccc(-c3ccc(CN4CCC(CCc5cccc6c5n(C)c(=O)n6C5CCC(=O)NC5=O)CC4)cn3)c2)nn2c(C(=O)N[C@@H]3C[C@@H]3F)cnc12 (stereo partly drawn) [Example K507],> 100
5,CNc1cc(Nc2cccc(-c3ccc(CN4CCN(c5ccc(-c6ccc7c(c6)n(C)c(=O)n7C6CCC(=O)NC6=O)cc5)CC4)cn3)c2)nc2c(C(=O)N[C@@H]3C[C@@H]3F)cnn12 (stereo partly drawn) [Example K508],> 100
6,Cn1c(=O)n(C2CCC(=O)NC2=O)c2ccc(-c3ccc(N4CCN(Cc5ccc(-c6cccc(Nc7cc(NC8CC8)n8ncc(C(=O)N[C@@H]9C[C@@H]9F)c8n7)c6)nc5)CC4)cc3)cc21 (stereo partly drawn) [Example K509],> 100
7,CNc1cc(Nc2cccc(-c3ccc(CN4CC5(CCN(c6cccc7c6n(C)c(=O)n7C6CCC(=O)NC6=O)CC5)C4)cn3)c2)nn2c(C(=O)N[C@@H]3C[C@@H]3F)cnc12 (stereo partly drawn) [Example K510],> 100
8,CNC1=CC(Nc2cccc(-c3ccc(CN4CC5(CCN(c6cccc7c(C8CCC(=O)NC8=O)cccc67)CC5)C4)cn3)c2)=NC2C(C(=O)N[C@@H]3C[C@@H]3F)=CN=C12 (stereo partly drawn) [Example K512],> 100
9,CNc1cc(Nc2cccc(-c3ccc(CN4CCN(c5ccc(-c6cccc7c6n(C)c(=O)n7C6CCC(=O)NC6=O)cc5)CC4)cn3)c2)nn2c(C(=O)N[C@@H]3C[C@@H]3F)cnc12 (stereo partly drawn) [Example K513],> 100
10,CNc1cc(Nc2cccn(-c3ccc(CN4CCN(CC5CCN(c6ccc(-c7ccc8c(c7)n(C)c(=O)n8C7CCC(=O)NC7=O)cc6)CC5)CC4)cn3)c2=O)nn2c(C(=O)N[C@@H]3C[C@@H]3F)cnc12 (stereo partly drawn) [Example K514],> 100

# Target: T1, TYK2
# Experiment: TYK2 degradation MSD assay in EBV-B cells
# Format: cell-based
# Parameters: endogenous in cells; host or cells: EBV-B cells
# Conditions: 4 to 24 hours incubation, read-out: TYK2 MSD DC50 rating in EBV-B
# Method in brief: as §1
row,DC50 [nM],Structure (SMILES)
1,1 to 10,Cn1c(=O)n(C2CCC(=O)NC2=O)c2ccc(-c3ccc(N4CC5(CN(Cc6ccc(-c7cccc(Nc8ccc9ncc(C(=O)NC%10CC%10)n9n8)c7)nc6)C5)C4)cc3)cc21 (stereo not drawn) [Example K515]
2,1 to 10,CNC1=CC(Nc2cccc(-c3ccc(CN4CCN(c5ccc(-c6cccc7c(N8CCC(=O)NC8=O)cncc67)cc5)CC4)cn3)c2)=NN2C1=NCC2C(=O)N[C@@H]1C[C@@H]1F (stereo partly drawn) [Example K516]
3,> 100,CNc1cc(Nc2cccc(-c3ccc(CN4CCC(N5CC(N6CCN(c7cccc8c7n(C)c(=O)n8C7CCC(=O)NC7=O)CC6)C5)CC4)cn3)c2)nn2c(C(=O)N[C@@H]3C[C@@H]3F)cnc12 (stereo partly drawn) [Example K517]
4,> 100,CNc1cc(Nc2cccc(N3CCC(CN4CCN(c5ccc(-c6ccc7c(c6)n(C)c(=O)n7C6CCC(=O)NC6=O)cc5)CC4)CC3)c2)nn2c(C(=O)N[C@@H]3C[C@@H]3F)cnc12 (stereo partly drawn) [Example K518]
5,> 100,CNc1cc(Nc2cccn(-c3ccc(CN4CC5(C4)CN(c4ccc(-c6ccc7c(c6)n(C)c(=O)n7C6CCC(=O)NC6=O)cc4)C5)cn3)c2=O)nn2c(C(=O)N[C@@H]3C[C@@H]3F)cnc12 (stereo partly drawn) [Example K519]

# Second part, the compound before the results:
row,Structure (SMILES),DC50 [nM]
1,CNc1cc(Nc2cccc(-c3ccc(CN4CCN(CCCOc5ccc(C6CCC(=O)NC6=O)cc5)CC4)cn3)c2)nn2c(C(=O)N[C@@H]3C[C@@H]3F)cnc12 (stereo partly drawn) [Example K504],< 1
2,CNc1cc(N2CCc3c(-c4ccc(CN5CCN(c6ccc(-c7ccc8c(c7)n(C)c(=O)n8C7CCC(=O)NC7=O)cc6)CC5)cn4)cccc32)nn2c(C(=O)N[C@@H]3C[C@@H]3F)cnc12 (stereo partly drawn) [Example K505],10 to 100
3,CNc1cc(Nc2cccc(-c3ccc(CN4CC5(CCN(C(=O)c6ccc(Cl)c(N7CCC(=O)NC7=O)c6)CC5)C4)cn3)c2)nn2c(C(=O)N[C@@H]3C[C@@H]3F)cnc12 [Example K506],10 to 100
4,CNc1cc(Nc2cccc(-c3ccc(CN4CCC(CCc5cccc6c5n(C)c(=O)n6C5CCC(=O)NC5=O)CC4)cn3)c2)nn2c(C(=O)N[C@@H]3C[C@@H]3F)cnc12 (stereo partly drawn) [Example K507],1 to 10
5,CNc1cc(Nc2cccc(-c3ccc(CN4CCN(c5ccc(-c6ccc7c(c6)n(C)c(=O)n7C6CCC(=O)NC6=O)cc5)CC4)cn3)c2)nc2c(C(=O)N[C@@H]3C[C@@H]3F)cnn12 (stereo partly drawn) [Example K508],1 to 10
6,Cn1c(=O)n(C2CCC(=O)NC2=O)c2ccc(-c3ccc(N4CCN(Cc5ccc(-c6cccc(Nc7cc(NC8CC8)n8ncc(C(=O)N[C@@H]9C[C@@H]9F)c8n7)c6)nc5)CC4)cc3)cc21 (stereo partly drawn) [Example K509],1 to 10
7,CNc1cc(Nc2cccc(-c3ccc(CN4CC5(CCN(c6cccc7c6n(C)c(=O)n7C6CCC(=O)NC6=O)CC5)C4)cn3)c2)nn2c(C(=O)N[C@@H]3C[C@@H]3F)cnc12 (stereo partly drawn) [Example K510],1 to 10
8,CNC1=CC(Nc2cccc(-c3ccc(CN4CC5(CCN(c6cccc7c(C8CCC(=O)NC8=O)cccc67)CC5)C4)cn3)c2)=NC2C(C(=O)N[C@@H]3C[C@@H]3F)=CN=C12 (stereo partly drawn) [Example K512],< 1
9,CNc1cc(Nc2cccc(-c3ccc(CN4CCN(c5ccc(-c6cccc7c6n(C)c(=O)n7C6CCC(=O)NC6=O)cc5)CC4)cn3)c2)nn2c(C(=O)N[C@@H]3C[C@@H]3F)cnc12 (stereo partly drawn) [Example K513],1 to 10
10,CNc1cc(Nc2cccn(-c3ccc(CN4CCN(CC5CCN(c6ccc(-c7ccc8c(c7)n(C)c(=O)n8C7CCC(=O)NC7=O)cc6)CC5)CC4)cn3)c2=O)nn2c(C(=O)N[C@@H]3C[C@@H]3F)cnc12 (stereo partly drawn) [Example K514],> 100
